From US20230146422A1, “ANIMAL MODEL FOR STUDYING CANCER IMMUNOTHERAPY” (ONCOFACTORY, priority 2020, published 2023)

Columns and labels:
[1] = system: human melanoma A375 cell line; experiment: Tumor volume in avian embryo co-grafted with A375 melanoma cells and human PBMCs (FIG. 12A); format: in vivo; details: A375 + human PBMCs co-graft, Keytruda injected 24 hours post-grafting, vs excipient, two to three days post-grafting
Description: To determine whether tumors composed of mixed human tumoral cells and immune cells are sensitive to anti-PD1 antibody treatment, the human melanoma A375 cell line was selected for the experiments. Indeed, this cell line was recently reported to express significant levels of PDL1 and to respond to anti-PD1 immunotherapy (Kuryk L, Møller A W, Jaderberg M, 2019).
A375 melanoma cells were cultured and co-grafted with human PBMC cells as previously described.
Two to three days post-grafting, embryos were collected and processed for imaging with a confocal light sheet microscope. The volume of the tumors was quantified using IMARIS software.

MDAMB 231 tumoral cells = experiment: Tumor volume in avian embryo co-grafted with MDAMB 231 cells and human PBMCs (FIG. 12B); format: in vivo; details: MDAMB 231 + human PBMCs co-graft, vs NaCl, raw and BSA-normalized
Description: (§1) The same experiment of example 9 was performed with other cancer cells: • MDAMB 231, well-known to be responsive to immunotherapy, and • a tumor sample issued from a patient affected by a metastatic melanoma.

[2] = system: CD4 and CD8 T cells of grafted human PBMCs; experiment: Activation and exhaustion markers on T cells of PBMCs grafted or co-grafted with MDAMB436 cells in avian embryo, with or without Keytruda (FIG. 11C); format: in vivo; details: FACS 48 hours post-grafting
Description: (11C) PBMC were co-grafted with tumoral cells: Pmela (a PDL1 negative cell line) or MDAMB436 (a PDL1 weak positive cell line).
Markers of activation (CD69, HLADR on the left) and exhaustion (CTLA4, PD1, on the right) were determined in PBMCs after co-grafting with human tumoral cells (Pmela or MDAM) in an avian embryo. Values are expressed in frequency over CD4+ and CD8+ populations in ratios of total identified lymphocytes (CD3+CD4+ and CD3+CD8+). Standard Deviations show data from a pool of PBMC from different healthy donors. Left Graph: CD4+, right graph: CD8+.
Then, MDAMB436 cells or Pmela cells were co-grafted with human PBMC cells.
At two days (48 hours) post-grafting, PBMCs were isolated from grafted embryos and analyzed by FACS.
Finally, grafted PBMCs were isolated by Percoll density separation and stained cells for markers of activation (CD69/HLADR) and exhaustion (CTLA4/PD1).
Standard Deviations show data from a pool of PBMC from different healthy donors. Values are expressed in ratios of the specific marker over CD3+CD4+ and CD3+CD8+ populations.

[3] = system: tumor sample from a patient affected by a metastatic melanoma; experiment: Metastasis number and volume in avian embryo co-grafted with human PBMCs and patient metastatic melanoma sample (FIG. 12C); format: in vivo; details: patient metastatic melanoma sample + human PBMCs co-graft, vs NaCl
Description: Metastasis number (on the left) and volume of metastatic tumors (in the middle) have been assessed. On the right, pictures show the extension of the tumor after NaCl treatment (on top) and after Keytruda treatment (on the bottom).
as §1
Also, the number of metastases formed by patient tumoral cells in the avian embryonic tissues has been assessed by the following of fluorescently-labelled tumor cells, and subsequent quantification of the fluorescent signal in the embryo.

[4] = system: T lymphocytes of PBMCs co-grafted with MDAMD231 tumoral cells; experiment: Activation and exhaustion markers on immune cells co-grafted with MDAMD231 cells in avian embryo, Keytruda treatment (FIG. 11D); format: in vivo, human; details: PBMCs co-grafted with MDAMD231, Keytruda 5 mg/ml, 24 hours, vs NaCl
Description: Expression of activation and exhaustion markers on co-grafted immune cells was quantified.

Substance: Pemzolibrumab [Keytruda]
- volume of the tumor [1]: decreases significantly
- tumor volume (MDAMB 231 tumoral cells): significant reduction
- levels of CTLA4 on the CD8 compartment ([2]; embryo treated 24 hours with Keytruda (PD1 blocking)): very high levels
- PD1 expression/accessibility on CD8 T cells ([2]; embryo treated 24 hours with Keytruda): minimization
- metastasis number (ability of tumor cells to metastasis) [3]: significantly decreased
- metastatic-volume [3]: significant reduction
- expression of exhaustion marker PD1 [4]: decreased
- expression of exhaustion marker TIM-3 [4]: decreased
